Measurements taken from US10857136B2, “Compounds for use in the prevention and/or treatment of non-alcoholic fat liver disease and non-alcoholic steatohepatitis” (SJT MOLECULAR RESEARCH, SL, priority 2017, dated 2020).

Columns and labels:
Type in all cases: in vivo
[1] = tested on: DIO mice (C57Bl/6J male mice); experiment: Liver weight, 36 days assay in DIO mice; conditions: 50 mg/kg orally twice daily, after 36 days, vs saline control and metformin 150 mg/kg
Protocol: To assess the performance of the compounds disclosed decreasing liver overweight, DIO mice (C57Bl/6J male mice) were treated with compounds 4a and 5a during 36 days, versus a control of DIO mice treated with vehicle (0.9% NaCl) and DIO mice treated with Metformin as a positive control.
(§1) For the assessment, 60 C57Bl/6J male mice (16-week-old at delivery and 40 g of average weight), obtained from Charles River France, were put on high fat diet for 10 weeks. The animals were housed in ventilated and enriched housing cages (310×125×127 mm^3) throughout the experimental phase. Animals' cages litters were changed at least once a week. Mice were housed in groups of 10 mice on a normal 12 hours light cycle (at 08:00 pm lights were switched off), at 22±2° C. and 50±10% relative humidity. After reception, mice were maintained for three additional acclimation weeks. During the whole test (acclimation+treatment phase) a high fat diet (D12492; purchased from Research Diet Inc 60% fat) and tap water were provided ad libitum.
After the acclimation period, mice were fasted for 6 hours and blood glucose and plasma insulin were measured. Ten animals, those with lower blood glucose/plasma insulin, were discarded from the study. Then, the others were randomized into 5 homogenous groups (n=10 mice per group) according to their blood glucose/plasma insulin levels (HOMA-IR) and body weight. […]

[2] = tested on: DIO mice (C57Bl/6J male mice); experiment: Insulin resistance (HOMA-IR), 36 days assay in DIO mice; conditions: 50 mg/kg orally twice daily for 36 days, days 1, 8, 15, 22, 29 and 36, vs saline control, similar to metformin 150 mg/kg
Protocol: To assess the performance of the compounds disclosed in decreasing insulin resistance, DIO mice (C57Bl/6J male mice) were treated with hydrochloride salts of compounds 4a, 5a; and with compound 7a during 36 days, versus a control treated with saline (0.9% NaCl) and versus DIO mice treated with metformin as a positive control.
as §1, with “C57Bl/6 J” for “C57Bl/6J”, “France” for “France, were”, “(D12492” for “(D12492;”, “Inc.;” for “Inc”
After the acclimation period, mice were fasted for 6 hours and blood glucose and plasma insulin were measured. Ten animals, those with lower blood glucose/plasma insulin, were discarded from the study. […]
Body weight were weekly measured as well as blood glucose and plasma insulin after a 6 hour-fasting.
Blood glucose was measured by sampling blood from the tip of the tail: a drop of blood is collected and placed on a glucometer strip (Accu-Check® glucometer, Roche, Switzerland). Plasma insulin was detected via ELISA (Elisa Kit, Eurobio, France) using 5 μl samples.
The Homeostatic model assessment-insulin resistance index (HOMA-IR), which is used to quantify insulin resistance, was calculated from fasting blood glucose, and plasma insulin values as follows: HOMA-IR=(mM glucose×μU/mL insulin)/22.5, being this constant a normalizing factor (Matthews et al., 1985, Diabetologia 28(7), 412-9).

[3] = tested on: DIO mice (C57Bl/6 J male mice); experiment: Liver lipid content, 36 days assay in DIO mice (colorimetric kits); conditions: 50 mg/kg orally twice daily, after 36 days, vs saline control
Protocol: To assess the performance of the compounds disclosed in decreasing hepatic lipid content, DIO mice (C57Bl/6 J male mice) were treated with a hydrochloride salt of compound 4a; and with compound 7a during 36 days, versus a control of DIO mice treated with saline (0.9% NaCl) and versus DIO mice treated with Metformin as a positive control.
as §1, with “C57Bl/6 J” for “C57Bl/6J”, “assessment” for “test”, “(D12492” for “(D12492;”, “Inc;” for “Inc”
After the acclimation period, mice were fasted for 6 hours and blood glucose and plasma insulin were measured. Ten animals, those with lower blood glucose/plasma insulin, were discarded from the study. Then, the others were randomized into 5 homogenous groups (n=10 mice per group) according to their blood glucose/plasma insulin levels (HOMA-IR) and body weight. Mice were treated orally twice daily for 36 days with either saline solution (control group), SJT test compound (4a, 7a; 50 mg/kg) or metformin (150 mg/kg).
Finally, mice were sacrificed, and liver was collected, weighted and stored at −80° C. for additional analysis. Liver samples were dissected for liver lipids assay. Liver lipids were assayed using colorimetric commercial assay kits, from liver samples homogenate after lipid solubilization in deoxycholate as described by Miao et al., J Lipid Res, 2004, 45, 1410-17. Samples were homogenized with an ultrasound probe with 500 μl distilled water during few seconds. Then cholic acid at 1% is added to make lipids soluble. The measurement of the different lipids was then performed using colorimetric kits from Sobioda, France.

Compound | liver weight (liver overweight) [1] | insulin resistance (HOMA-IR) [2] | hepatic cholesterol [3] | hepatic fatty acids [3] | hepatic triglycerides [3]
COc1ccc(-c2nc(C(=O)NCCCN)cc3c2[nH]c2ccccc23)cc1 [Compound 5a, N(-propylamine)-1-benzosubstituted-β-carboline-3-carboxamide] | lower liver weight than either mice treated with metformin or than the control animals | lower insulin resistance compared to the control animals | – | – | –
COc1ccc(-c2nc(C(=O)N/N=C/c3ccccc3)cc3c2[nH]c2ccccc23)cc1 [Compound 7a, 3-(carbohydrazyl-N′-phenylsubstitute)-1-benzosubstitute-β-carbolinic-3-carbohydrazide] | – | lower insulin resistance compared to the control animals | lower lipid levels than untreated control animals | lower lipid levels than untreated control animals | lower lipid levels than untreated control animals
